From BindingDB's records for patent US12565497 (Hoffmann-La Roche, 2026)

molecular target: S-adenosylmethionine synthase isoform type-2 (Homo sapiens, UniProt P31153); test: Determination of Mat2A Activity
Method: Measurement of Mat2A inhibition is performed in 384 well format absorbance-based assay. Recombinant human Mat2a (12.5 nM) and serial diluted compounds in DMSO (range of concentrations from 10 μM to 508 pM) or controls (DMSO) are incubated for 15 minutes at room temperature (RT) in assay buffer containing 50 mM HEPES pH 7.5, 50 mM KCl, 50 mM MgCl2, 0.01%Tween 20 and 10 mM DTT. The reaction is initiated by the addition of the combined substrates ATP and Methionine, each at a final concentration of 100 μM. Final assay condition are 12.5 nM Mat2A, 100 μM ATP and Methionine Substrates and 2% DMSO. After 120 minutes of incubation at RT, the reaction is stopped by the addition of Biomol Green. The absorbance signal is measured at λ=635 nm with a multiplate reader (BMG Pherastar reader or equivalent) after 30 min of equilibration at RT.

Sequence of S-adenosylmethionine synthase isoform type-2 (P31153 whole entry, canonical isoform): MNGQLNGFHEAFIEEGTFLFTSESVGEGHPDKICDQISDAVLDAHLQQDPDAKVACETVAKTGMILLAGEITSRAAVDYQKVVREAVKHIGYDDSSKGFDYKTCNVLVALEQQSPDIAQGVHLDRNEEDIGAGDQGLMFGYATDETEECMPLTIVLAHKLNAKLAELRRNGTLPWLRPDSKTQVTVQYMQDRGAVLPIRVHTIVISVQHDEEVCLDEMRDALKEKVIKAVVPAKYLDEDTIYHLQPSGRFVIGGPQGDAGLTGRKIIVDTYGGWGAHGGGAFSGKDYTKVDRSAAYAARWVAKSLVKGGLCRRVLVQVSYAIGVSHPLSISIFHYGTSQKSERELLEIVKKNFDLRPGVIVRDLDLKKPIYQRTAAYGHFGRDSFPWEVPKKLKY

Row | Compound | IC50
1 | CCS(=O)(=O)c1ccc(-c2nccc3[nH]nc(C4CC4)c23)cc1C [US12565497, Example 20] | 15 nM
2 | Cc1cc(-c2c(S(C)(=N)=O)ccc3[nH]nc(C4CC4)c23)ccc1S(C)(=O)=O (configuration not stated) [US12565497, Example 112] | 90 nM
3 | Cc1cc(-c2c(C(=O)NC3COC3)ncc3[nH]nc(C4CC4)c23)ccc1S(C)(=O)=O [US12565497, Example 84] | < 13 nM
4 | Cc1cc(-c2c(C(=O)NC3CC3)ncc3[nH]nc(C4CC4)c23)ccc1S(C)(=O)=O [US12565497, Example 86] | < 13 nM

Results, then the compound that gave them:

Row | IC50 | Compound
5 | < 13 nM | Cc1cc(-c2c(S(C)(=O)=O)ccc3[nH]nc(OC(F)F)c23)ccc1S(=O)(=O)C(F)F [US12565497, Example 117]
6 | < 13 nM | COCCNC(=O)c1ncc2[nH]nc(OC(F)F)c2c1-c1ccc(S(=O)(=O)C(F)F)c(C)c1 [US12565497, Example 109]
7 | < 13 nM | Cc1cc(-c2c(S(C)(=O)=O)ccc3[nH]nc(OC(F)F)c23)ccc1S(C)(=O)=O [US12565497, Example 49]
